In publication PMC7170889, “Synthesis and evaluation of designed PKC modulators for enhanced cancer immunotherapy” (Nature Communications, 2020):

What was measured:
[1] = system: CD22 surface expression in NALM6 cells; assay: CD22 surface expression in NALM6 cells (flow cytometry); type: cell-based, human; details: NALM6 cells at 1 nM relative to DMSO control, 24 h incubation, washout, 24 h sub-culture, n = 3; for fold induction at 0.001 µM: Homo sapiens, NALM-6, 24 h, read-out: Fold increase CD22 expression
Protocol: CD22 Surface Expression Protocol – NALM6 Cells […]
unless otherwise noted below) at 37 ° C in an incubator (5% CO2). Cell cultures were maintained […]
Cell suspension from a confluent T75 flask (Fisher) was transferred to a 15 mL falcon tube and centrifuged at 1100 rpm for 7 minutes. The supernatant was aspirated, and the cell pellet was […]
Cells were counted using a Countess II Automated Cell
199 µL of this stock was added to 24 wells (enough for triplicate measurements for 8 different experimental conditions) in a 96-well plate. Dosing was […]
each experiment. 1 µL of DMSO or the appropriate stock solution of compound in DMSO was added to each well. Cells were incubated for 24 hours, at which point the cell suspensions were transferred to 1.5 mL Eppendorf tubes and diluted with 1.0 mL of PBS (Hyclone, without Ca2+ or Mg2+). Samples were centrifuged at 2000 rpm for 5 min at RT. The supernatant was aspirated, […]
Cells were sub-cultured between 2 […]
surface expression was assayed by flow cytometry.
Cells from one well were counted using a Countess II Automated Cell Counter (Fisher). ~200,000 – 300,000 cells from each well were added to 1.5 mL Eppendorf tubes containing PBS (final volume ~1.2 mL). The cell suspensions were centrifuged at 1500 rpm for 7 minutes at 4 °C. The supernatant was aspirated, and the cell pellet was resuspended in 99 µL of pre-chilled FACS […]
buffer (0.5% w/v BSA in PBS). […]
minutes. Samples were then diluted with an additional 1.0 mL of FACS buffer and centrifuged at 1500 rpm for 7 minutes at 4 °C. The supernatant was aspirated, the cell pellets were resuspended in 200 µL FACS buffer, and the resulting suspensions were transferred to FACS tubes (Fisher, […]
Cells were stained with DAPI and CD22 surface expression was analyzed using the FACScan Analyzer at the Stanford Shared FACS Facility. Data analysis was performed using FlowJo and Microsoft Excel.

PKCδ-GFP fusion protein = target: T1, PKCδ-GFP fusion protein (Homo sapiens, UniProt Q05655); assay: PKCδ-GFP translocation assay in living CHO-k1 cells (confocal microscopy); type: cell-based, Chinese hamster; details: for Emax at 0.2 µM: CHO-K1, 200 nM compound; for Emax at 0.2 µM / Emax at 1 µM: read-out: % Translocation (maximum translocation of PKCδ-GFP to the plasma membrane); for minimum effective concentration required to induce translocation of PKC-GFP to the membrane: tested at 200 and 1000 nM; for PKC activation dynamics (shape of translocation curve): Fig. 5c, d; for Emax at 1 µM: CHO-K1, 1000 nM compound
T1 construct: expressed in transfected cells; host or cells: CHO-k1 (Chinese hamster ovary, ATCC)
Protocol: With a panel of compounds bearing diverse functionality at C13, we began to explore how these modifications affect PKC binding and biological function. Because an obvious prerequisite for PKC pathway involvement is binding to PKC, compounds were initially evaluated for PKC affinity in a cell-free competitive binding assay with tritiated phorbol dibutyrate ([^3H]-PDBu). Assays were performed with representative members of both the conventional (PKCα) and novel (PKCδ) PKC families. Subsequently, compounds were assayed for PKC isoform translocation in real time in living cells using an optical assay. Translocation to the plasma membrane is the hallmark of PKC activation[18],[57],[60] and therefore monitoring the subcellular localization of a PKCδ-GFP fusion protein via confocal microscopy offers a convenient method for determining whether a compound enters a cell and engages its PKC isoform target. Finally and of clinical significance, we also determined the effect of compounds on CD22 surface expression in vitro in NALM6 cells, an ALL cell line previously studied in connection with CD22-targeted CAR T cell therapy, and two additional lymphoma cell lines[11],[31],[65].
Scale bar represents 25 μm. Experiments performed in n = 3 biological replicates. b–d Cytosolic fluorescence normalized to t = 0 (time immediately prior to addition of compound to media) and plotted against time. Error bars excluded for clarity (data presented as the mean of n = 3 biological replicates). Individual curves with error bars included in Supplementary Information.
PKCδ-GFP Translocation Assay Protocol
Chinese hamster ovary factor K1 (CHO-k1, ATCC) cells were cultured in F-12 Kaighn’s media (Hyclone, 10% fetal bovine serum, 1% penicillin/streptomycin added, reffered to as F-12 +/+ below) at 37 ° C in an incubator (5% CO2). Cell cultures were maintained by splitting cells 1:3 when they reached ~75-100% confluence (every 2-3 days) as follows:
(Gibco) was used to remove the cells from the culture flask (T75, Falcon). 1 mL of the cell suspension was then added to 9 mL of fresh F-12 +/+ and the sample was sub-cultured until reaching confluence (~2-3 days).
Cells were counted using a Countess II Automated Cell Counter (Fisher). The cell suspension was diluted to 240,000 cells/mL with fresh F-12 +/+ and 2.5 mL of this diluted stock was added to one well in a 6-well plate. The cells were then cultured for 24 hours.
Cells were transfected with Lipofectamine 2000 reagent (Invitrogen) or DA 13:11 at a 10:1 charge […]
F-12 +/+ was aspirated and cells were washed with F-12 -/-. 2 mL of fresh F-12 -/- was then added to each well, taking care not to disturb adherent cells. For each well of CHO-k1 cells, 12.5 µL Lipofectamine 2000 reagent (Invitrogen) was added to 250 µL Opti-MEM reduced serum media (Invitrogen) in a polypropylene tube and incubated for 20 minutes at RT. Meanwhile, for each well, 4 µg of PKCδ-GFP pDNA and 250 µL Opti-MEM reduced serum media was added to a separate polypropylene tube. 250 µL of the Lipofectamine 2000 suspension was added to the DNA suspension and the solution incubated for 30 minutes at RT. 500 µL of the Lipofectamine/DNA suspension was added to the respective wells of the 6-well plate. The cells were then incubated at 37 ° C (5% CO2) for ~24 hrs.
F-12 +/+ was aspirated and cells were washed with F-12 -/-. 2.4 mL of fresh F-12 -/- was then added to each well, taking care not to disturb adherent cells. A 4 µg aliquot of PKCδ-GFP pDNA was added to PBS (pH 5.5, final volume 100 µL). 5.6 µL of DA 13:11 (2 mM stock in DMSO) was then added to the DNA solution, and the mixture was gently mixed (by flicking) for 20 seconds, at which point it was added directly to the respective wells of the 6-well plate.

T1 sequence (Q05655 whole entry, the tested form may be a part): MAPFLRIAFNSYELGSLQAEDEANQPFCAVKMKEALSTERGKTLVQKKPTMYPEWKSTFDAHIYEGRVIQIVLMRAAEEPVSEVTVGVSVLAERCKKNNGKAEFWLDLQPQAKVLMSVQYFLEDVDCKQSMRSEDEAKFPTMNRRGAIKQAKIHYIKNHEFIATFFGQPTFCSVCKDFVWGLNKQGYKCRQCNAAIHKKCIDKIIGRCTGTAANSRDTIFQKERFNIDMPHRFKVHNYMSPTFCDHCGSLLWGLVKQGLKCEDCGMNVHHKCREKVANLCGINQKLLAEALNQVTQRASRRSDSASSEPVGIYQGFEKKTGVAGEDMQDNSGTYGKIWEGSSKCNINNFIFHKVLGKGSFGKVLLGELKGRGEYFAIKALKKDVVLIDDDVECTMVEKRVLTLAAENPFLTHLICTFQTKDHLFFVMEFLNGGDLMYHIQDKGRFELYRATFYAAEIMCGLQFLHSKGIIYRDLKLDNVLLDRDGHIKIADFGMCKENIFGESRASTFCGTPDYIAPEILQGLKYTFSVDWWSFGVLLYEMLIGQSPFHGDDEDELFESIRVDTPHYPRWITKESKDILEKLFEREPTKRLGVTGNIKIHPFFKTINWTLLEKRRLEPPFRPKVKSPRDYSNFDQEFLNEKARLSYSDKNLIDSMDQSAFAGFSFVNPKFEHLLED

Row | Compound | fold induction at 0.001 µM [1] | cytosolic PKC translocated to the plasma membrane (PKCδ-GFP fusion protein; 200 nM, at 20 min) | Emax at 0.2 µM (PKCδ-GFP fusion protein; CHO-k1 cells, n = 3) [%] | minimum effective concentration required to induce translocation of PKC-GFP to the membrane (PKCδ-GFP fusion protein; CHO-k1 cells) [nM] | Fold increase CD22 expression [1] [fold] | activity in the PKC translocation assay at 200 nM (PKCδ-GFP fusion protein; 200 nM) | time required for translocation (PKCδ-GFP fusion protein; 200 nM) | PKC activation dynamics (shape of translocation curve) (PKCδ-GFP fusion protein) | Emax at 1 µM (PKCδ-GFP fusion protein; CHO-k1 cells, n = 3) [%] | % Translocation (maximum translocation of PKCδ-GFP to the plasma membrane) (PKCδ-GFP fusion protein; 200 nM compound, CHO-k1 cells, n = 3) [%]
1 | CCCCCC#CC(=O)O[C@H]1/C(=C/C(=O)OC)C[C@H]2C[C@H]([C@@H](C)O)OC(=O)C[C@H](O)C[C@@H]3C[C@H](OC(C)=O)C(C)(C)[C@](O)(C[C@@H]4C[C@H](O)C[C@H](/C=C/C(C)(C)[C@]1(O)O2)O4)O3 [SUW204] | 0.98 | ~ 25% | 25 | 200 | – | – | – | – | – | –
2 | CCC/C=C/C=C/C(=O)O[C@H]1/C(=C/C(=O)OC)C[C@H]2C[C@H]([C@@H](C)O)OC(=O)C[C@H](O)C[C@@H]3C[C@H](OC(C)=O)C(C)(C)[C@](O)(C[C@@H]4C[C@@H](OC(C)=O)C[C@H](/C=C/C(C)(C)[C@]1(O)O2)O4)O3 [SUW207] | – | – | 60 | 200 | 1.33 | – | – | – | – | –
3 | CCCC=CC=CC(=O)OC1C(=CC(=O)OC)CC2CC(C(C)O)OC(=O)CC(O)CC3CC(OC(C)=O)C(C)(C)C(O)(CC4CC(OC(=O)Nc5ccccc5)CC(C=CC(C)(C)C1(O)O2)O4)O3 (stereo not shown) [SUW208] | 1.68 | – | 75 | 200 | – | effectively translocated PKC to the plasma membrane | ~ 15 min | delayed activation patterns | – | –
4 | CCCC=CC=CC(=O)OC1C(=CC(=O)OC)CC2CC(C(C)O)OC(=O)CC(O)CC3CC(OC(C)=O)C(C)(C)C(O)(CC4CC(OC(=O)CC56CC7CC(CC(C7)C5)C6)CC(C=CC(C)(C)C1(O)O2)O4)O3 (stereo not shown) [SUW209] | 1.45 | – | – | 1000 | – | inactive | – | – | 60 | –
5 | CCCC=CC=CC(=O)OC1C(=CC(=O)OC)CC2CC(C(C)O)OC(=O)CC(O)CC3CC(OC(C)=O)C(C)(C)C(O)(CC4CC(OC(=O)CCc5c[nH]c6ccccc56)CC(C=CC(C)(C)C1(O)O2)O4)O3 (stereo not shown) [SUW210] | 1.49 | – | – | 1000 | – | inactive | – | – | 75 | –
6 | CCCC=CC=CC(=O)OC1C(=CC(=O)OC)CC2CC(C(C)O)OC(=O)CC(O)CC3CC(OC(C)=O)C(C)(C)C(O)(CC4CC(=CC(=O)OCC)CC(C=CC(C)(C)C1(O)O2)O4)O3 (stereo not shown) [SUW217] | 1.97 | – | 75 | 200 | – | – | – | – | – | –
7 | CCCC=CC=CC(=O)OC1C(=CC(=O)OC)CC2CC(C(C)O)OC(=O)CC(O)CC3CC(OC(C)=O)C(C)(C)C(O)(CC4CC(=CC(=O)OCC)CC(C=CC(C)(C)C1(O)O2)O4)O3 (stereo not shown) [SUW218] | – | – | – | 200 | 1.92 | – | – | more sustained linear activation dynamics | – | 55
